Data as given in US11236044B2, “Selective inhibitors of 12(S)-lipoxygenase (12-LOX) and methods for use of the same” (THE REGENTS OF THE UNIVERSITY OF MICHIGAN, priority 2018, dated 2022).
Where two headings read alike, the source gives them in different places.

How the values were obtained:
[1] = Pharmacokinetic study of the inhibitors in mice blood plasma (PO and IV); type: in vivo; settings: for concentration at 2 h / concentration at 4 h / concentration at 7 h: mouse, plasma, 30 mg/kg
Method: Pharmacokinetic Study of the Inhibitors in Mice Blood Plasma
The blood plasma concentration of compounds A1, A2, and A4 in mice was determined following per os, oral compound administration (“PO”) and intravenous (“IV”) administration
Calibration curve. The concentration range was evaluated from 2.5-5000 ng/ml for compound A2, 1-5000 ng/ml for compound A4, and 5-5000 ng/ml for compound A1. The curve was built with linear regression with weighing (1/X2). The linear regression analysis was performed by plotting the peak area ratio (y) against the concentration (x) in ng/mL.
Instrument Conditions. The LC-MS and mass spectrometry conditions for the compounds tested are shown below.
Results. The individual and average compound A1, A2, and A4 concentration-time data for IV and PO dosed groups are listed in Table 1, and graphically presented in FIG. 1.

[2] = tested on: thrombus formation in cremaster arterioles; assay: Laser-induced cremaster arteriole thrombosis model; type: in vivo; settings: WT mice, 3 mg/kg oral, twice a day for 2 days, versus PEG control; FIG. 4
Method: C57BL/6 wild-type (WT) control mice were purchased from Jackson Laboratories (Bar Harbor, Me., USA) and housed in the research facility at the University of Michigan. Compound A1 was synthesized and specifically formulated in Polyethylene Glycol 300 (PEG 300) for oral gavage dosing in mice for in vivo thrombosis and hemostasis studies. For laser-induced cremaster arteriole thrombosis model, mice were treated with compound A1 (3 mg/kg) or with PEG 300 via oral administration 2 times per day for 2 days prior to intravital microscopy studies on the third day.
Adult mice (10-12 weeks old) were anesthetized as described above and surgically prepared as described in detail, and a tracheal tube was inserted to facilitate breathing. The cremaster muscle was prepared and perfused with preheated bicarbonate-buffered saline throughout the experiment. DyLight 488-conjugated rat anti-mouse platelet GP1b8 antibody (0.1 μg/g; EMFRET Analytics) and Alexa Fluor 647-conjugated anti-fibrin (0.3 μg/g) or Alexa Flour 647 rat-anti mouse CD62P (3 μg/mouse) were administered by a jugular vein cannula prior to vascular injury. […] All captured images were analyzed for the change of fluorescent intensity over the course of thrombus formation after subtracting fluorescent background defined on an uninjured section of the vessel using the Slidebook program. […]

[3] = tested on: platelet accumulation in the lung (FcγRIIa-mediated platelet activation); assay: Anti-GPIX-induced HITT model for lung thrombosis; type: in vivo, transgenic mice expressing the human FcγRIIa receptor; settings: 15 mg/kg oral gavage, four hours following HITT induction, versus PEG vehicle; FIG. 5
Method: Adult transgenic mice (10-12 weeks old) expressing the human FcγRIIa receptor on their platelets were anesthetized as described above and were orally gavaged with 15 mg/kg of A1 or control vehicle 30-minutes prior to IV bolus injection of 0.75 mg/kg anti-GPIX to induce activation of the FcγRIIa receptor on the platelets to mimic heparin-induced thrombocytopenia and thrombosis (“HITT”) in the mouse. The anti-GPIX antibody was conjugated to DyLight 488 to visualize its binding to platelets and platelet accumulation in the lung. 4 hours post-anti-GPIX induction, the animals were sacrificed and the lungs were visualized using the Li—COR Odyssey imager.
Representative images of platelet accumulation (green) in the mouse lungs from control (PEG vehicle) and A1-treated (15 mg/kg) mice are shown in FIG. 5

[4] = iv, IV 30 mg/kg, n=3 (outliers excluded), read-out: Concentration in Plasma, Mean
[5] = iv, IV 30 mg/kg, read-out: Concentration in Plasma, Mouse 1
[6] = iv, IV 30 mg/kg, read-out: Concentration in Plasma, Mouse 2
[7] = iv, IV 30 mg/kg, read-out: Concentration in Plasma, Mouse 3
[8] = po, PO 30 mg/kg, n=3 (outliers excluded), read-out: Concentration in Plasma, Mean
[9] = po, PO 30 mg/kg, read-out: Concentration in Plasma, Mouse 1
[10] = po, PO 30 mg/kg, read-out: Concentration in Plasma, Mouse 2
[11] = po, PO 30 mg/kg, read-out: Concentration in Plasma, Mouse 3

For `COc1cccc(CNc2ccc(S(=O)(=O)Nc3cccc(Cl)c3)cc2)c1O` [Compound A1, N-(3-chlorophenyl)-4-((2-hydroxy-3-methoxybenzyl)amino) benzenesulfonamide], which “Concentration in Plasma, Mouse 2” value ([1]; PO 30 mg/kg, 2 h) is on record?
Its value is “*899.2 ng/ml”.

And the concentration at 2 h ([1]; iv, IV 30 mg/kg, 2 h, n=3 (outliers excluded), read-out: Concentration in Plasma, Mean)?
Its concentration at 2 h is 0.0774 µg/mL.

And the concentration at 2 h ([1]; iv, IV 30 mg/kg, 2 h, read-out: Concentration in Plasma, Mouse 1)?
Its concentration at 2 h is 0.0696 µg/mL.

And the concentration at 2 h ([1]; iv, IV 30 mg/kg, 2 h, read-out: Concentration in Plasma, Mouse 2)?
The concentration at 2 h was 0.124 µg/mL.

And the concentration at 2 h ([1]; iv, IV 30 mg/kg, 2 h, read-out: Concentration in Plasma, Mouse 3)?
The concentration at 2 h was 0.0388 µg/mL.

And the concentration at 4 h [1, 4]?
Its concentration at 4 h is 0.0292 µg/mL.

What about the concentration at 4 h [1, 5] of the same compound?
Its concentration at 4 h is 0.0464 µg/mL.

And the concentration at 4 h [1, 6]?
The concentration at 4 h was 0.0202 µg/mL.

And the concentration at 4 h [1, 7]?
Its concentration at 4 h is 0.0209 µg/mL.

What about the concentration at 7 h [1, 4] of the same compound?
The concentration at 7 h was 0.0169 µg/mL.

And the concentration at 7 h [1, 5]?
Its concentration at 7 h is 0.0365 µg/mL.

And the concentration at 7 h [1, 6]?
The concentration at 7 h was 0.0059 µg/mL.

And the concentration at 7 h [1, 7]?
The concentration at 7 h was 0.0083 µg/mL.

And the concentration at 2 h ([1]; po, PO 30 mg/kg, 2 h, n=3 (outliers excluded), read-out: Concentration in Plasma, Mean)?
Its concentration at 2 h is 0.0404 µg/mL.

And the concentration at 2 h ([1]; po, PO 30 mg/kg, 2 h, read-out: Concentration in Plasma, Mouse 1)?
Its concentration at 2 h is 0.021 µg/mL.

And the concentration at 2 h ([1]; po, PO 30 mg/kg, 2 h, read-out: Concentration in Plasma, Mouse 3)?
Its concentration at 2 h is 0.0597 µg/mL.

What about the concentration at 4 h [1, 8] of the same compound?
The concentration at 4 h was 0.0529 µg/mL.

What about the concentration at 4 h [1, 9] of the same compound?
Its concentration at 4 h is 0.0489 µg/mL.

What about the concentration at 4 h [1, 10] of the same compound?
Its concentration at 4 h is 0.0898 µg/mL.

What about the concentration at 4 h [1, 11] of the same compound?
Its concentration at 4 h is 0.02 µg/mL.

And the concentration at 7 h [1, 8]?
The concentration at 7 h was 0.0152 µg/mL.

And the concentration at 7 h [1, 9]?
Its concentration at 7 h is 0.0121 µg/mL.

What about the concentration at 7 h [1, 10] of the same compound?
Its concentration at 7 h is 0.0241 µg/mL.

And the concentration at 7 h [1, 11]?
The concentration at 7 h was 0.0093 µg/mL.

And the “thrombus formation (platelet accumulation and fibrin formation) in cremaster arterioles” value [2]?
The value was “impairs thrombus formation”.

What about the “thrombocytopenia and thrombosis (platelet accumulation) in mouse lungs” value [3] of the same compound?
The value was “inhibit thrombocytopenia and thrombosis in mouse lungs”.
